Source: US12497515B2, “Fluorogenic pH-sensitive compounds and their methods of use” (LIFE TECHNOLOGIES CORPORATION, priority 2020, dated 2025)

How the values were obtained:
Jurkat cells [1] = assay: Apoptosis control experiments (CYQUANT Direct, PRESTOBLUE HS, CELLEVENT Caspase green); format: cell-based; settings: 2 uM overnight
Protocol: In this study, Jurkat cells were grown in 0.1% DMSO vehicle control or 2 uM camptothecin overnight in normal cell culture conditions then harvested, counted, washed, labeled, and resuspended at matched total cell number at 2×10^6 cells per mL in complete culture medium and dispensed 100 uL (200,000 cells) per well (n=8 per measurement) before adding the indicated reagents for 1 hour. […] The apoptosis indicator CELLEVENT Caspase green (Thermo Fisher Scientific, Waltham, MA) was also added to the two samples matched in total cells per mL along with NUCBLUE Live (Thermo Fisher Scientific, Waltham, MA), and cells plated at 100,000 cells per well for HCA quantification on the […] CX5.

[2] = pKa of the free compound (pH profile of fluorescence intensity); format: physicochemical; settings: series of pH buffers
Protocol: (§1) FIG. 6 provides the pH profile of fluorescence intensity of Compound C at room temperature. Fluorescence was measured using 636 nm ex, 654 nm em, with 5 nm bandpass. Solutions were diluted to 5 uM with a series of pH buffers in triplicate in a 96-well clear-bottom black walled plate. Samples were measured on a Tecan Infinite M100 plate reader via top-read. RFU=relative fluorescence units.
as §1, with “FIG. 7” for “FIG. 6”, “Compound E” for “Compound C”, “with” for “with a series of”
Fluorescence was measured using 636 nm excitation wavelength (ex), 654 nm emission wavelength (em), with 5 nm bandpass filter. Solutions were diluted to 5 uM with a series of pH buffers (see Table 3) in triplicate in a 96-well clear-bottom black walled plate. Samples were measured on a Tecan Infinite M100 plate reader via top-read.
Fluorescence was measured using 636 nm ex, 654 nm em, with 5 nm bandpass. Solutions were diluted to 5 uM with pH buffers in triplicate in a 96-well clear-bottom black walled plate. Samples were measured on a Tecan Infinite M100 plate reader via top-read.

[3] = pH response kinetics (ring opening, absorbance at 637 nm); format: physicochemical; settings: for pH response kinetics: stock in phosphate buffer pH 7.4 mixed with phosphate buffer pH 3.13, room temperature
Protocol: The kinetics of the ring opening of Compound A, Compound C, and Compound H were studied by measuring absorbance changes at 637 nm (absorption maxima of the ring-opening states) with UV-Vis spectroscopy. Stock solutions of the three dyes were prepared in pH 7.4 phosphate buffer with concentration of 1.8 mM. […] Stock solutions (10 μL) containing the dyes (1.8 mM) in phosphate buffer (pH 7.4) were diluted 300 times with phosphate buffer (pH 3.13) to a final concentration of […] at pH 3.13. The absorption changes were recorded at room temperature at 637 nm.

RAW macrophages [4] = assay: Phagocytosis of CD4 opsonized Jurkat cells labeled with compound; format: cell-based; settings: incubated with RAW macrophages 1-3 hours, 10×
Protocol: In this study, Jurkat cells were grown as normal in complete medium then harvested, counted, washed, labeled, and resuspended per product description in complete culture medium before splitting into control and CD4 antibody treated samples. In brief, the cells were resuspended in PBS and labeled with either BSA control or CD4 antibody at 2 ug/mL for one hour at room temperature before washing 2× in PBS and adding to RAW macrophages.

Jurkat cells [5] = assay: Toxicity and turn-on response of labeled cells (PRESTOBLUE Cell Health Assay, Cy5 imaging); format: cell-based
Protocol: In this study, healthy Jurkat cells were grown and harvested in normal cell culture conditions, washed, counted, labeled and resuspended per product description in complete culture medium, and incubated overnight before testing for cell health and number with the PRESTOBLUE Cell Health Assay (Thermo Fisher Scientific, Waltham, MA). Cells with Compound C were, in parallel determinations, resuspended in the external reference pH buffer indicated and imaged on an EVOS M7000 for signal in the Cy5 channel from labeled cells at extracellular pH 4.5 (FIG. 42A, in red) and 7.5 (FIG. 42A, Inset). FIG. 42B is a graph showing control (left side) and compound C (right side).

RAW macrophages [6] = assay: Efferocytosis of labeled apoptotic Jurkat cells; format: cell-based; settings: incubated with RAW macrophages 1-3 hours, 4× and 10×
Protocol: FIGS. 43-44 show the efferocytosis from apoptotic cells with Compound C. In this study, Jurkat cells were grown in 0.1% DMSO control or 2 uM camptothecin overnight in normal cell culture conditions then harvested, counted, washed, labeled and resuspended per product description in complete culture medium at matched density before adding to RAW macrophages for assays of efferocytosis, or the phagocytosis of apoptotic cells.

CC[C@@]1(O)C(=O)OCc2c1cc1n(c2=O)Cc2cc3ccccc3nc2-1 [Camptothecin, camptothecin]
apoptosis, intracellular caspase activity (CELLEVENT Caspase green) (Jurkat cells [1]): substantial induction of apoptosis
live cell number (CYQUANT Direct) (Jurkat cells [1]): fewer live cells
overall vitality (PRESTOBLUE HS) (Jurkat cells [1]): decrease in overall vitality

CC1(C)C=C(CS(=O)(=O)O)c2cc3c(c4c2N1CCC4)Oc1c(cc2c4c1CCCN4C(C)(C)C=C2CS(=O)(=O)O)C31c2c(Cl)ccc(Cl)c2C(=O)N1OCC(=O)Oc1c(F)c(F)cc(F)c1F [Compound F]
pKa [2]: 5.5

CC1(C)C=C(CS(=O)(=O)O)c2cc3c(c4c2N1CCC4)Oc1c(cc2c4c1CCCN4C(C)(C)C=C2CS(=O)(=O)O)C31c2c(Cl)ccc(Cl)c2C(=O)N1CCOCCOCCOCCOCCC(=O)Oc1c(F)c(F)cc(F)c1F [Compound H]
pKa [2]: 5.2
absorbance as share of the expected maximum value (A=0.93) ([3]; after 6000 seconds (100 minutes) at pH 3.13): 5%
absorbance at 637 nm ([3]; after 6000 seconds (100 minutes) at pH 3.13, 6.6 μM): 0.05
pH response kinetics [3]: slow

CC1(C)C=C(CS(=O)(=O)O)c2cc3c(c4c2N1CCC4)Oc1c(cc2c4c1CCCN4C(C)(C)CC2CS(=O)(=O)O)C31c2c(Cl)ccc(Cl)c2C(=O)N1NC(=O)CCOCCOCCOCCOCCC(=O)Oc1c(F)c(F)cc(F)c1F (centres unmarked) [Compound B]
pKa [2]: 3.7

CC1(C)C=C(CS(=O)(=O)O)c2cc3c(c4c2N1CCC4)Oc1c(cc2c4c1CCCN4C(C)(C)CC2CS(=O)(=O)O)C31c2c(Cl)c(Cl)c(Cl)c(Cl)c2C(=O)N1NC(=O)CCOCCOCCOCCOCCC(=O)Oc1c(F)c(F)cc(F)c1F (centres unmarked) [Compound D]
pKa [2]: 4.3

CC1(C)C=C(CS(=O)(=O)O)c2cc3c(c4c2N1CCC4)Oc1c(cc2c4c1CCCN4C(C)(C)C=C2CS(=O)(=O)O)C31c2c(Cl)ccc(Cl)c2C(=O)N1CCN1CCN(C(=O)CCOCCOCCOCCOCCC(=O)ON2C(=O)CCC2=O)CC1 [Compound A]
pKa [2]: 5.2
absorbance as share of the expected maximum value (A=0.93) ([3]; after 3600 seconds (60 minutes) at pH 3.13): 5%
absorbance at 637 nm ([3]; after 3600 seconds (60 minutes) at pH 3.13, 6.6 μM): 0.05
pH response kinetics [3]: slow

CC(C)(ON1C(=O)c2c(Cl)ccc(Cl)c2C12c1cc3c4c(c1Oc1c2cc2c5c1CCCN5C(C)(C)C=C2CS(=O)(=O)O)CCCN4C(C)(C)C=C3CS(=O)(=O)O)C(=O)Oc1c(F)c(F)cc(F)c1F [Compound G]
pKa [2]: 6.5

CC1(C)C=C(CS(=O)(=O)O)c2cc3c(c4c2N1CCC4)Oc1c(cc2c4c1CCCN4C(C)(C)C=C2CS(=O)(=O)O)C31c2c(Cl)ccc(Cl)c2C(=O)N1OCCOCCOCCOCCC(=O)Oc1c(F)c(F)cc(F)c1F [Compound C]
pKa [2]: 4.87
absorption at 637 nm (A) ([3]; immediately after mixing pH 7.4 stock into pH 3.13 buffer, 6.6 μM, maximum, kept constant): 0.93
pH response kinetics [3]: fast
phagocytosis signal, CD4 antibody treated vs control labeled Jurkat cells (RAW macrophages [4]): signal preferentially appearing from the CD4 treated samples
toxicity to labeled cells vs sham labeled control (Jurkat cells [5]; Jurkat cells, overnight, PRESTOBLUE): little toxicity
turn-on response of labeled cells (Jurkat cells [5]; extracellular pH 4.5 vs 7.5, Cy5 channel): large fold turn-on response
efferocytosis signal, camptothecin treated vs control labeled Jurkat cells (RAW macrophages [6]): signal preferentially appearing from the camptothecin treated samples

CC1(C)C=C(CS(=O)(=O)O)c2cc3c(c4c2N1CCC4)Oc1c(cc2c4c1CCCN4C(C)(C)C=C2CS(=O)(=O)O)C31c2c(Cl)c(Cl)c(Cl)c(Cl)c2C(=O)N1OCCOCCOCCOCCC(=O)Oc1c(F)c(F)cc(F)c1F [Compound E]
pKa [2]: 4.67
